Values after ≈ are worked out from the molar mass of the structure shown. “Also recorded” adds a separate entry of the source. Where two headings read alike, the source gives them in different places.
Experiments:
[1] = tested on: MRSA and MSSA; test: Antibacterial activity of gallic acid, various gallates and multivalent phenol derivatives alone (agar plate dilution method, MIC); assay type: cell-based, Staphylococcus aureus; conditions: Staphylococcus aureus
Protocol: (§1) According to the agar plate dilution method defined by Japan Society of Chemotherapy, MIC (Minimum inhibitory concentration) was determined. CAMHA was prepared by adding 50 mg/l of Ca-ion, 25 mg/l of Mg-ion, and 2% of NaCl to Mueller-Hinton II Agar (MHA), and it was used as a medium for use in the measurement of sensitivity. The bacterial liquid was incubated at 37° C. overnight and diluted to 10^6 CFU/ml with saline.
MIC for gallic acid, various gallates and multivalent phenol derivatives alone with MRSA and MSSA were determined as described in experiment 2.

[2] = tested on: MRSA; test: Potentiating effect of galloyl quinic acid derivatives for the antibacterial activity of oxacillin (agar plate dilution method, MIC); assay type: cell-based, Staphylococcus aureus
Protocol: as §1
It was confirmed that the known substances shown below were contained in “Tara” and their MICs were determined as described in example 2 with respect to the effects of the combination use with oxacillin

[3] = ATCC 6538 / MRSA / MSSA, ATCC6538, compound alone, read-out: MIC
[4] = COL, compound alone, read-out: MIC
[5] = MRSA #1, compound alone, read-out: MIC
[6] = MRSA #2, compound alone, read-out: MIC
[7] = MRSA #3, compound alone, read-out: MIC
[8] = MRSA #4, compound alone, read-out: MIC
[9] = MRSA #5, compound alone, read-out: MIC
[10] = MRSA #6, compound alone, read-out: MIC
[11] = MRSA #7, compound alone, read-out: MIC
[12] = MRSA #8, compound alone, read-out: MIC
[13] = MRSA #9, compound alone, read-out: MIC
[14] = MRSA #10, compound alone, read-out: MIC
[15] = MRSA #12, compound alone, read-out: MIC
[16] = MRSA #16, compound alone, read-out: MIC
[17] = MRSA #17, compound alone, read-out: MIC
[18] = MRSA #18, compound alone, read-out: MIC
[19] = MRSA #20, compound alone, read-out: MIC
[20] = MRSA #21, compound alone, read-out: MIC
[21] = MRSA #22, compound alone, read-out: MIC
[22] = MRSA #24, compound alone, read-out: MIC
[23] = MSSA #1003, compound alone, read-out: MIC
[24] = MSSA #1010, compound alone, read-out: MIC
[25] = MSSA #1020, compound alone, read-out: MIC
[26] = MSSA #1023, compound alone, read-out: MIC
[27] = MSSA #1029, compound alone, read-out: MIC
[28] = MSSA #1032, compound alone, read-out: MIC
[29] = over all strains of Table 3-2, compound alone, read-out: MIC50

Structure (SMILES) | MIC [1, 4] | MIC [1, 5] | MIC [1, 6] | MIC [1, 7] | MIC [1, 8] | MIC [1, 9] | MIC [1, 10] | MIC [1, 11] | MIC [1, 12] | MIC [1, 13] | MIC [1, 14] | MIC [1, 15] | MIC [1, 16] | MIC [1, 17] | MIC [1, 18] | MIC [1, 19] | MIC [1, 20] | MIC [1, 21] | MIC [1, 22] | MIC [1, 23] | further results
CC(=O)c1ccc(O)c(O)c1O [2′,3′,4′-trihydroxyacetophenone] | 62.5 µg/mL (≈ 372 µM) | 62.5 µg/mL (≈ 372 µM) | 62.5 µg/mL (≈ 372 µM) | 62.5 µg/mL (≈ 372 µM) | 62.5 µg/mL (≈ 372 µM) | 62.5 µg/mL (≈ 372 µM) | 31.3 µg/mL (≈ 186 µM) | 62.5 µg/mL (≈ 372 µM) | 62.5 µg/mL (≈ 372 µM) | 62.5 µg/mL (≈ 372 µM) | 31.3 µg/mL (≈ 186 µM) | 62.5 µg/mL (≈ 372 µM) | 62.5 µg/mL (≈ 372 µM) | 62.5 µg/mL (≈ 372 µM) | 62.5 µg/mL (≈ 372 µM) | 62.5 µg/mL (≈ 372 µM) | 62.5 µg/mL (≈ 372 µM) | 62.5 µg/mL (≈ 372 µM) | 62.5 µg/mL (≈ 372 µM) | 62.5 µg/mL (≈ 372 µM) | MIC [1, 3]: 62.5 µg/mL (≈ 372 µM); MIC [1, 24]: 62.5 µg/mL (≈ 372 µM); MIC [1, 25]: 62.5 µg/mL (≈ 372 µM); MIC [1, 26]: 31.3 µg/mL (≈ 186 µM); MIC [1, 27]: 31.3 µg/mL (≈ 186 µM); MIC [1, 28]: 62.5 µg/mL (≈ 372 µM); MIC50 [1, 29]: 62.5 µg/mL (≈ 372 µM)
CCCC(=O)c1cc(O)c(O)cc1O [2′,4′,5′-trihydroxybutyrophenone] | 125 µg/mL (≈ 637 µM) | 62.5 µg/mL (≈ 319 µM) | 125 µg/mL (≈ 637 µM) | 62.5 µg/mL (≈ 319 µM) | 125 µg/mL (≈ 637 µM) | 62.5 µg/mL (≈ 319 µM) | 62.5 µg/mL (≈ 319 µM) | 62.5 µg/mL (≈ 319 µM) | 125 µg/mL (≈ 637 µM) | 62.5 µg/mL (≈ 319 µM) | 62.5 µg/mL (≈ 319 µM) | 125 µg/mL (≈ 637 µM) | 62.5 µg/mL (≈ 319 µM) | 125 µg/mL (≈ 637 µM) | 125 µg/mL (≈ 637 µM) | 125 µg/mL (≈ 637 µM) | 125 µg/mL (≈ 637 µM) | 125 µg/mL (≈ 637 µM) | 125 µg/mL (≈ 637 µM) | 125 µg/mL (≈ 637 µM) | MIC50 [1]: 125 µg/mL (≈ 637 µM); MIC ([1]; ATCC 6538 / MRSA / MSSA): 125 µg/mL (≈ 637 µM); MIC [1, 24]: 125 µg/mL (≈ 637 µM); MIC [1, 25]: 125 µg/mL (≈ 637 µM); MIC [1, 26]: 62.5 µg/mL (≈ 319 µM); MIC [1, 27]: 62.5 µg/mL (≈ 319 µM); MIC [1, 28]: 62.5 µg/mL (≈ 319 µM)
O=C(OC1CC(O)(C(=O)O)CC(OC(=O)c2cc(O)c(O)c(O)c2)C1OC(=O)c1cc(O)c(O)c(O)c1)c1cc(O)c(O)c(O)c1 (centres unmarked) [3,4,5-trigalloylquinic acid] | – | – | – | – | – | – | – | – | – | – | – | – | – | – | – | – | – | – | – | – | effect of combination use with oxacillin (words) [2]: excellent; also recorded: most potent
O=C(OC1CC(O)(C(=O)O)CC(O)C1OC(=O)c1cc(O)c(O)c(O)c1)c1cc(O)c(O)c(O)c1 (centres unmarked) [3,4-digalloylquinic acid] | – | – | – | – | – | – | – | – | – | – | – | – | – | – | – | – | – | – | – | – | effect of combination use with oxacillin (words) [2]: weak effects
CCCCCCCCCCCCCCCCOC(=O)c1cc(O)c(O)c(O)c1 [Cetyl gallate] | 250 µg/mL (≈ 634 µM) | > 250 µg/mL | 250 µg/mL (≈ 634 µM) | > 250 µg/mL | > 250 µg/mL | > 250 µg/mL | 125 µg/mL (≈ 317 µM) | > 250 µg/mL | > 250 µg/mL | > 250 µg/mL | 125 µg/mL (≈ 317 µM) | > 250 µg/mL | > 250 µg/mL | > 250 µg/mL | > 250 µg/mL | > 250 µg/mL | > 250 µg/mL | > 250 µg/mL | > 250 µg/mL | > 250 µg/mL | MIC [1, 3]: > 250 µg/mL; MIC [1, 24]: > 250 µg/mL; MIC [1, 25]: > 250 µg/mL; MIC [1, 26]: > 250 µg/mL; MIC [1, 27]: 250 µg/mL (≈ 634 µM); MIC [1, 28]: 250 µg/mL (≈ 634 µM); MIC50 [1, 29]: > 250 µg/mL
